In the OPERA property sets (Mansouri et al. 2018):

With `Cc1cccc2ncccc12` the boiling point was 263 °C and the melting point was 19 °C. In the case of `COC(=O)c1ccc(C)cc1C`, the boiling point is reported as 232 °C and the melting point is reported as -2 °C. Compound `CCCCCCCCOC(=O)CCCCCCC` has a boiling point of 307 °C and a melting point of -18.1 °C. `CCCCCCCCCCCCC#N` gave a boiling point of 293 °C and a melting point of 9.7 °C. For `O=C(O)CO`, the log10 vapour pressure (mmHg) was -1.7, the melting point was 79.5 °C and the ready biodegradability was “readily biodegradable”. For `CC(=O)CO`, the boiling point was 146 °C, the melting point was -17 °C and the ready biodegradability was “readily biodegradable”. Work on `CC(=O)c1ccc([N+](=O)[O-])cc1` yielded a melting point of 81.8 °C. Work on `Clc1ccc(-c2ccc(Cl)c(Cl)c2)cc1` yielded a log10 Henry constant (atm·m³/mol) of -4. Work on `C1=CCNC1` yielded a boiling point of 90.5 °C. With `CCCCCCC(=O)OCC` the boiling point was 187 °C, the log10 Henry constant (atm·m³/mol) was -3.3 and the log10 Koc (L/kg) was 2.61. For the same compound, the log10 vapour pressure (mmHg) was -0.168 and the melting point was -66.1 °C. In the case of `CCC(Cl)(Cl)[N+](=O)[O-]`, the boiling point is reported as 145 °C. Work on `O=C1Cc2ccccc2N1` yielded a melting point of 128 °C. For `O=C(O)CSc1ncccn1`, the ready biodegradability was “readily biodegradable”. With `O=[N+]([O-])c1cc(Br)ccc1Br` the melting point was 85.5 °C. In the case of `CC(C)c1cccc(C(C)C)c1N`, the boiling point is reported as 257 °C and the melting point is reported as -45 °C. With `CC(O)C(Cl)(Cl)Cl` (configuration not stated) the boiling point was 163 °C and the melting point was 50.5 °C. In the case of `C[C@]12CCC(=O)C=C1CC[C@@H]1[C@@H]2[C@@H](O)C[C@@]2(C)[C@H]1CC[C@]2(O)C(=O)CO`, the melting point is reported as 218 °C. `O=c1ccc2ccc(O)cc2o1` showed a melting point of 230 °C. For `O=C(O)C(F)(F)C(F)F`, the boiling point was 134 °C. With `O=C(O)COc1ccccc1C(=O)O` the melting point was 191 °C. `O=C(OCC(O)CO)c1ccccc1Nc1ccnc2cc(Cl)ccc12` (configuration not stated) gave a melting point of 170 °C. Compound `COc1ccc(CCCC(=O)O)cc1` has a melting point of 57.5 °C. Compound `O=C1c2ccccc2C(=O)c2c1ccc(O)c2O` has a boiling point of 430 °C, a log10 vapour pressure (mmHg) of -9.06 and a melting point of 290 °C. Compound `N[C@@H](CCC(=O)N[C@@H](CS)C(=O)NCC(=O)O)C(=O)O` has a melting point of 195 °C. With `Nc1nc(N)nc(NC2CC2)n1` the log10 Koc (L/kg) was 2.3, the log10 vapour pressure (mmHg) was -8.47 and the melting point was 225 °C. `O=C(O)CCc1ccccc1` showed a boiling point of 280 °C, a log10 vapour pressure (mmHg) of -2.57 and a melting point of 107 °C. Compound `CCCC(C(C)=O)C(=O)OCC` (configuration not stated) has a boiling point of 224 °C. With `CCCCc1ccc(O)cc1` the boiling point was 248 °C, the log10 vapour pressure (mmHg) was -2.65 and the melting point was 22 °C. Work on `CCC(C)CCC=C(C)C` (configuration not stated) yielded a boiling point of 163 °C. `C=C1C[C@H]2[C@@H]3CCC4=CC(=O)C=C[C@]4(C)[C@H]3[C@@H](O)C[C@]2(C)[C@@]1(O)C(=O)CO` showed a melting point of 234 °C. For `Nc1ccc2c(c1)C(=O)c1ccccc1C2=O`, the log10 vapour pressure (mmHg) was -10.3, the melting point was 304 °C and the ready biodegradability was “not readily biodegradable”. Work on `CCCC(=O)c1ccc(C)cc1` yielded a boiling point of 252 °C and a melting point of 12 °C. With `CC(=O)O[C@@H]1C[C@H](C)CC[C@H]1C(C)C` (racemic) the boiling point was 228 °C and the log10 vapour pressure (mmHg) was -0.983. With `CN(CC(=O)O)N=O` the melting point was 66.5 °C. With `COCC(=O)N(c1c(C)cccc1C)C(C)C(=O)OC` (configuration not stated) the log10 Koc (L/kg) was 1.57, the log10 vapour pressure (mmHg) was -4.93 and the ready biodegradability was “not readily biodegradable”. `CC(C)CCC(C)C` showed a boiling point of 109 °C, a log10 biodegradation half-life (days) of 1.4 and a log10 vapour pressure (mmHg) of 1.48. For the same compound, the melting point was -91 °C. Compound `Cc1cc2nc[nH]c2cc1C` has a melting point of 206 °C. For `CO[Si](C)(C)OC`, the boiling point was 82 °C. For `O=C=Nc1ccc(Cl)cc1`, the boiling point was 204 °C, the log10 vapour pressure (mmHg) was -0.712 and the melting point was 30 °C. Compound `CC1=CC[C@@]23CC1C(C)(C)[C@@H]2CC[C@H]3C` has a melting point of 262 °C. For `CCCCCCCCCCCS`, the boiling point was 257 °C and the melting point was -3 °C. `CCC(=O)C(C)C` gave a boiling point of 114 °C and a log10 vapour pressure (mmHg) of 1.26. In the case of `O=C(O)CCCCC1CCSS1` (configuration not stated), the melting point is reported as 60.5 °C. In the case of `CCCCCCCCC=CCCCCCCCC(=O)N(C)CCS(=O)(=O)[O][Na]`, the ready biodegradability is reported as “readily biodegradable”. `CCCCCCCCCC(Br)C(=O)O` (configuration not stated) gave a melting point of 10 °C. With `Cc1cccc([N+](=O)[O-])c1N` the melting point was 96 °C. Compound `CC(C)CCN` has a boiling point of 96 °C. Work on `Nc1cc(Cl)ccc1O` yielded a melting point of 140 °C. With `Clc1ccc(SSc2ccc(Cl)cc2)cc1` the melting point was 68 °C. Work on `COCCOc1ccccc1S(=O)(=O)N=C(O)N=c1nc(OC)[nH]c(OC)n1` yielded a melting point of 130 °C. `C=C[C@H]1CNCC[C@H]1CCC(=O)c1ccnc2ccccc12` showed a melting point of 59 °C. With `CCC1OCC(COc2ccc(Oc3ccccc3)cc2)O1` (configuration not stated) the log10 vapour pressure (mmHg) was -6.08. For `CC(C)C(C)CC(C)(C)C` (configuration not stated), the boiling point was 148 °C and the log10 vapour pressure (mmHg) was 0.779. Compound `CCN(CC)c1ccc(C)cc1` has a boiling point of 229 °C. In the case of `O=C(O)[C@H](O)[C@@H](O)C(=O)O` (racemic), the melting point is reported as 174 °C. In the case of `Nc1cccc2cc3ccccc3cc12`, the melting point is reported as 116 °C. `O=c1[nH]c(=O)n([C@H]2C[C@H](O)[C@@H](CO)O2)cc1Br` showed a melting point of 192 °C. With `CCNS(=O)(=O)C(F)(F)C(F)(F)C(F)(F)C(F)(F)C(F)(F)C(F)(F)C(F)(F)C(F)(F)F` the boiling point was 196 °C, the log10 vapour pressure (mmHg) was -6.37 and the melting point was 96 °C. `C=CCCCCCCCCC=C` gave a boiling point of 208 °C. For `c1coc(CNc2[nH]cnc3ncnc2-3)c1`, the melting point was 266 °C. Work on `Cc1csc(S)n1` yielded a melting point of 89.3 °C. `O=c1c2ccccc2sc2ccccc12` gave a boiling point of 373 °C and a melting point of 209 °C. `C=C[C@H](C)O` showed a boiling point of 96.5 °C.
